Patent EP4407316A1, “PROTEASOMAL DEGRADATION OF PROTEINS” (Katholieke Universiteit Leuven, KU Leuven R&D, priority 2023, dated 2024)
pIC50: −log10 of the molar value. One block for each compound: values may come before it.

How the values were obtained:
[1] = tested on: ASB8 knockout and overexpressing cells; assay: MTS cell viability assay in ASB8 knockout and ASB8 overexpressing cells; format: cell-based, human; conditions: HAP1 four days, KMS-28BM six days of treatment
Description: (§1) Figure 4. XPO1 protein degradation is regulated by ASB8. a-b Sensitization profile of HAP1 cells with either knockout or overexpression of ASB8 under selection with selinexor. Cell viability when transduced with a safe-targeting or ASB8 targeting sgRNA (a). Cell viability when transduced with a non-coding stuffer sequence or ASB8 coding sequence at two different multiplicities of infection (MOI) (b). After four days of treatment with compound at the indicated concentrations, cell viability was measured by MTS assay. Data were normalized to untreated cells and represent mean ±SD of three separate experiments performed in triplicate. IC50 values were compared with control using an extra sum-of-squares F-test. c-d Monitoring of XPOL degradation in HAP1 cells with western blot. Comparison of cells stably transduced with a safe-targeting versus ASB8 targeting sgRNA (c) or with a stuffer sequence versus ASB8 coding sequence (d). Cells were treated overnight with selinexor and bortezomib as indicated. […]
(§2) Figure 10. a Viability of KMS-28BM cells stably transduced with a stuffer or ASB8 coding lentiviral vector and treated with different concentrations of selinexor. b-e Viability of ASB8 knockout and ASB8 overexpressing HAP1 cells treated with different concentrations of KPT-9274 (b, c) or ispinesib (d, e). f-g Viability of ASB8 overexpressing KMS-28BM cells treated with different concentrations of KPT-9274 (f) or ispinesib (g). After four days (HAP1) or six days (KMS-28BM) of treatment with compound at the indicated concentrations, cell viability was measured by MTS assay. […] IC50 values were compared with control using an extra sum-of-squares F-test. h Representative images of fluorescence microscopy imaging of subcellular ASB8 localization. […]
HAP1 cells were seeded in 96-well plates at 2500 cells/well in 100 µL medium. […] For each experiment, absorbance measurements of three replicate wells were averaged. […]

[2] = molecular target: T1, XPO1 (Homo sapiens, UniProt O14980); assay: Western blot (Simple Western) monitoring XPO1 degradation in HAP1 cells; format: cell-based; conditions: for XPO1 degradation: overnight treatment
T1 construct: endogenous in cells
T1 sequence (O14980 whole entry): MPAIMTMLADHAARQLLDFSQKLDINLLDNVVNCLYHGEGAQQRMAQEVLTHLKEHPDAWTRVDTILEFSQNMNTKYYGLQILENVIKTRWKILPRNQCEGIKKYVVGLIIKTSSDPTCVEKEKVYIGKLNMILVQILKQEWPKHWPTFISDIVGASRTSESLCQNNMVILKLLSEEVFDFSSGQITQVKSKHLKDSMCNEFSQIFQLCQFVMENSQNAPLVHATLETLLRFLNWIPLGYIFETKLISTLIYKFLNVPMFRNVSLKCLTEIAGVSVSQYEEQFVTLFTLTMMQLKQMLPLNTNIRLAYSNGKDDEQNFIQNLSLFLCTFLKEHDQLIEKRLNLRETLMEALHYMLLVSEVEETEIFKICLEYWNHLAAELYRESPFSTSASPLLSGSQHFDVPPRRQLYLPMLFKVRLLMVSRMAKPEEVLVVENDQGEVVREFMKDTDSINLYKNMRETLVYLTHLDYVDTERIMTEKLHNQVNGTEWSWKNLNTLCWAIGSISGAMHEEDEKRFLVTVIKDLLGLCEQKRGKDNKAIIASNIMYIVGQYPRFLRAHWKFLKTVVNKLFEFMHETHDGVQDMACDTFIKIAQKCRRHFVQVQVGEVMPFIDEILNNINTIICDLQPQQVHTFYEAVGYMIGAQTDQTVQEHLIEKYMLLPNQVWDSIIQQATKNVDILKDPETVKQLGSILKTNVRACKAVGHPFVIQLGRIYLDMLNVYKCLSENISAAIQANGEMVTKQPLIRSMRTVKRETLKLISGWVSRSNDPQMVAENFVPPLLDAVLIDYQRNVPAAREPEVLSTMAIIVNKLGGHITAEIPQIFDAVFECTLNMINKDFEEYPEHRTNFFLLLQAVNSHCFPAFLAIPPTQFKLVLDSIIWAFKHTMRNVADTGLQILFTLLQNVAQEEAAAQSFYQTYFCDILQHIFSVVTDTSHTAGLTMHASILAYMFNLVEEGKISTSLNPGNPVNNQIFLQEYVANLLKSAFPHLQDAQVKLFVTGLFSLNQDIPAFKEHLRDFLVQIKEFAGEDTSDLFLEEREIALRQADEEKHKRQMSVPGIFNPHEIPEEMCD
Description: Figure 4. XPO1 protein degradation is regulated by ASB8. a-b Sensitization profile of HAP1 cells with either knockout or overexpression of ASB8 under selection with selinexor. Cell viability when transduced with a safe-targeting or ASB8 targeting sgRNA (a). Cell viability when transduced with a non-coding stuffer sequence or ASB8 coding sequence at two different multiplicities of infection (MOI) (b). After four days of treatment with compound at the indicated concentrations, cell viability was measured by MTS assay. Data were normalized to untreated cells and represent mean ±SD of three separate experiments performed in triplicate. IC50 values were compared with control using an extra sum-of-squares F-test. c-d Monitoring of XPOL degradation in HAP1 cells with western blot. Comparison of cells stably transduced with a safe-targeting versus ASB8 targeting sgRNA (c) or with a stuffer sequence versus ASB8 coding sequence (d). Cells were treated overnight with selinexor and bortezomib as indicated. Cells were harvested and total lysates were probed for XPO1 and TUBB (β-tubulin) protein levels. e Time-of-drug-addition assay in HAP1 cells harboring a stuffer or ASB8 coding sequence (MOI=0.2). Duration of treatment with selinexor is as indicated. For bortezomib, length of treatment was 24 h for all conditions. f Selinexor-induced degradation of XPO1 in HAP1 cells with an endogenous Cys528Ser mutation introduced by CRISPR-mediated homology-directed repair. Following stable transduction of XPOL wild-type and mutant cells with a stuffer or ASB8 coding sequence (MOI=0.2), cells were treated overnight with compound as indicated.
For the experiments monitoring XPO1 degradation, HAP1 cells were seeded in 6-well plates at 100,000 cells/mL. The next day, cells were treated with selinexor and/or bortezomib as indicated. The pan-caspase inhibitor Q-VD-OPh was added to all conditions at 10 µM final concentration to delay onset of apoptosis. Cells were treated with compound overnight or as indicated. Next, cells were harvested, washed with ice-cold PBS and lysed in RIPA buffer (Thermo Fisher Scientific) with 1× HALT Protease Inhibitor Cocktail (Thermo Fisher Scientific) on ice for 20 min. Cell debris was removed by centrifugation at 20.000 × g and 4 °C for 10 min and total protein content was quantified with the Pierce BCA Protein Assay kit (Thermo Fisher Scientific). We used an automated, capillary-based Simple Western size assay (Wes, ProteinSimple) to detect and quantify our proteins of interest. 5 µL of lysate at a final concentration of 200 µg/mL was loaded onto the assay plate. For detection, the following primary antibodies and dilutions were used: CRM1/XPO1 (NB100-79802, Novus, 1:1000), TUBB (NB600-936, Novus, 1:40) and FLAG (F4049, Sigma-Aldrich, 1:250). […]

[3] = tested on: ASB8; assay: Immunofluorescence staining of subcellular ASB8 localization in HAP1 cells; format: cell-based, human; conditions: stable FLAG-ASB8 expressing HAP1 cells; 200 nM overnight
Description: Figure 10. a Viability of KMS-28BM cells stably transduced with a stuffer or ASB8 coding lentiviral vector and treated with different concentrations of selinexor. b-e Viability of ASB8 knockout and ASB8 overexpressing HAP1 cells treated with different concentrations of KPT-9274 (b, c) or ispinesib (d, e). f-g Viability of ASB8 overexpressing KMS-28BM cells treated with different concentrations of KPT-9274 (f) or ispinesib (g). After four days (HAP1) or six days (KMS-28BM) of treatment with compound at the indicated concentrations, cell viability was measured by MTS assay. Data were normalized to untreated cells and represent mean ±SD of two or three separate experiments performed in triplicate. IC50 values were compared with control using an extra sum-of-squares F-test. h Representative images of fluorescence microscopy imaging of subcellular ASB8 localization. HAP1 cells with a stably integrated FLAG-ASB8 or a non-coding stuffer sequence were treated overnight with DMSO or 200 nM selinexor. Cells were fixed and stained with a primary anti-FLAG antibody. Nuclei were stained with DAPI. Figure 11. Co-immunoprecipitation of XPO1 with ASB8. HEK293T cells were transiently transfected with XPOL together with either FLAG-ASB8 or KPNA3-FLAG (control) plasmids. After 24 hours, selinexor was added at the indicated concentrations and cells were incubated for an additional 15 minutes. […]

[4] = molecular target: T2, XPO1 Cys528Ser mutation (Homo sapiens, UniProt O14980, C528S); assay: Western blot (Simple Western) monitoring XPO1 degradation in HAP1 XPO1 C528S mutant cells; format: cell-based; conditions: HAP1 cells with endogenous XPO1 Cys528Ser mutation; control and ASB8 overexpressing; overnight treatment
T2 construct: HAP1 cells with an endogenous Cys528Ser mutation introduced by CRISPR-mediated homology-directed repair; endogenous in cells
T2 sequence (O14980 whole entry C528S): as the sequence (O14980 whole entry) above, with C528S counted along it
Description: as §1, with “(d).” for “(d). Cells were treated overnight with selinexor and bortezomib as indicated.”
For the experiments monitoring XPO1 degradation, HAP1 cells were seeded in 6-well plates at 100,000 cells/mL. […] Cell debris was removed by centrifugation at 20.000 × g and 4 °C for 10 min and total protein content was quantified with the Pierce BCA Protein Assay kit (Thermo Fisher Scientific). We used an automated, capillary-based Simple Western size assay (Wes, ProteinSimple) to detect and quantify our proteins of interest. […]

[5] = tested on: HAP1 cells; assay: Live cell count to establish selinexor IC values for CRISPR screening; format: cell-based; conditions: Homo sapiens, 96 h, live cells counted after four days and compared to untreated control flask
Description: To detect gene loss-of-function events that modulate sensitivity to XPO1 inhibition, we conducted genome-wide CRISPR-Cas9 screens in cells under selection with selinexor. We selected HAP1 cells for our initial screen as this chronic myeloid leukemia cell line is a relevant model^66,67 and has suitable characteristics for CRISPR screening, including a high proliferation rate and transduction efficiency. HAP1 cells were transduced with the Brunello genome-wide CRISPR knockout library in the one-vector configuration, in which sgRNA and Cas9 are expressed from a single lentiviral construct. Cells were split into control (DMSO) and selinexor-treated arms, further divided into three replicates per arm and passaged in parallel for 24 days (Fig. 1a). Selinexor was used at a concentration of 100 nM, corresponding to the IC50, i.e., the concentration at which the live cell count in the treated arm was half of that in the control arm after […]. At each passage, cells were harvested and per arm, an equal number of cells was reseeded with fresh compound. […]
To establish IC values for screening, cells were seeded in 150-cm^2 flasks and treated with selinexor at different concentrations for four days after which live cells were counted and compared to an untreated control flask. […]

[6] = tested on: DS cells; assay: as above; format: cell-based; conditions: Homo sapiens, 96 h, live cells counted after four days and compared to untreated control flask
Method: (§3) To establish IC values for screening, cells were seeded in 150-cm^2 flasks and treated with selinexor at different concentrations for four days after which live cells were counted and compared to an untreated control flask. HAP1, KMS-28BM and SK-MM-1 cells were screened with the one-vector library encoding both sgRNA and Cas9 while for DS and RL cells, the two-vector library, which uses two separate vectors for the sgRNA and Cas9, was used. Cells were transduced at a MOI of approximately 0.25 and a coverage of >200-fold. Puromycin-selected cells were allowed to recover for 4-7 days after which selection with selinexor started. […] In addition, KMS-28BM were also screened at IC20, corresponding to a concentration of 40 nM. Finally, for every cell line, a no-drug condition was included (DMSO). For each condition, three parallel replicates containing at least 20 × 10^6 cells each were initiated after puromycin selection and maintained independently throughout screening and downstream processing. Cells were passaged every 2-4 days and cell pellets of 20 × 10^6 were collected at regular intervals. Screening continued for >20 cell doublings, more precisely until day 24, 42, 28, 28 and 25 for HAP1, KMS-28BM, SK-MM-1, DS and RL cells, respectively.

[7] = tested on: KMS-28BM cells; assay: as above; format: cell-based; conditions: Homo sapiens, 96 h, live cells counted after four days and compared to untreated control flask
Method: as §3

[8] = tested on: RL cells; assay: as above; format: cell-based; conditions: Homo sapiens, 96 h, live cells counted after four days and compared to untreated control flask
Method: as §3

[9] = tested on: SK-MM-1 cells; assay: as above; format: cell-based; conditions: Homo sapiens, 96 h, live cells counted after four days and compared to untreated control flask
Method: as §3

[10] = molecular target: T3, ASB8 interacts with XPO1 (Homo sapiens, UniProt O14980); assay: Co-immunoprecipitation of XPO1 with FLAG-ASB8 in HEK293T cells; format: binding; conditions: HEK293T cells co-transfected with XPO1 and FLAG-ASB8; 15 minutes treatment; higher concentrations
T3 construct: expressed in transfected cells; host or cells: HEK293T cells, transient transfection (TurboFectin 8.0)
T3 sequence (O14980 whole entry): as the sequence (O14980 whole entry) above
T3 sequence (Q9H765 whole entry partner): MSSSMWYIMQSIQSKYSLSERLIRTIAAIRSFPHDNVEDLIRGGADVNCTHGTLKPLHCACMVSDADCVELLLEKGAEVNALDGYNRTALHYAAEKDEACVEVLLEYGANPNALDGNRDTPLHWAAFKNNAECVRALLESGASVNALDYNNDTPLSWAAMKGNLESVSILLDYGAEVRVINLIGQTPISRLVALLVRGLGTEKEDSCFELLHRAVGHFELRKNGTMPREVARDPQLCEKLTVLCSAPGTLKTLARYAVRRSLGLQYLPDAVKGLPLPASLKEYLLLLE
Method: Figure 5. ASB8 interacts with XPO1. HEK293T cells were transiently transfected with XPO1 alone or together with either FLAG-ASB8 or FLAG-luc2 plasmids. After 24 hours, selinexor was added at the indicated concentrations and cells were incubated for 15 minutes. Next, cells were collected and incubated with lysis buffer for 20 minutes (whole-cell lysate, WCL). From these lysates, FLAG fusions were pulled down and co-immunoprecipitation of XPO1 was checked with western blot (IP: FLAG).
as §2
The protocol for lysis and co-immunoprecipitation was modified from an earlier report^64. […] After 15 min of incubation, cells were harvested and counted. […]

Structure (SMILES): Nc1ccc(/C=C/C(=O)NCc2cc3cc(-c4ccc(C(=O)N5CCC(F)(F)CC5)cc4)cc(-c4ccc(F)cc4)c3o2)cn1 [KPT-9274]
sensitivity (dose-response) in ASB8 knockout and overexpressing cells versus control [1]: no difference in response

effect on selinexor-induced XPO1 degradation ([2]; HAP1 control cells with safe-targeting sgRNA, co-treatment with selinexor overnight): prevented
Structure (SMILES): CC(C)C[C@H](NC(=O)[C@H](Cc1ccccc1)NC(=O)c1cnccn1)B(O)O [bortezomib]

Structure (SMILES): Cc1ccc(C(=O)N(CCCN)[C@@H](c2nc3cc(Cl)ccc3c(=O)n2Cc2ccccc2)C(C)C)cc1 [ispinesib]
sensitivity (dose-response) in ASB8 knockout and overexpressing cells versus control [1]: no difference in response

XPO1 degradation ([2]; HAP1 control cells with safe-targeting sgRNA): dose-dependent degradation of XPO1
XPO1 degradation [4]: did not trigger XPO1 degradation
pIC50 [5]: 7.00
pIC50 [6]: 6.70
pIC50 [7]: 6.90
pIC50 [8]: 7.40
pIC50 [9]: 6.85
Structure (SMILES): O=C(/C=C\n1cnc(-c2cc(C(F)(F)F)cc(C(F)(F)F)c2)n1)NNc1cnccn1 [selinexor]
XPO1 degradation ([2]; HAP1 ASB8 knockout cells): did not observe selinexor-induced XPOL degradation to the same extent
XPO1 degradation ([2]; HAP1 ASB8 overexpressing cells, with and without bortezomib): XPO1 was profoundly depleted even in the presence of bortezomib
nuclear accumulation of ASB8 [3]: did not observe nuclear accumulation of ASB8
IC20 [7]: 40 nM
sensitivity (dose-response) in ASB8 knockout and overexpressing cells versus control [1]: increased sensitivity
amount of XPO1 co-immunoprecipitated with FLAG-ASB8 [10]: increased the amount of immunoprecipitated XPO1
